From ChEMBL document CHEMBL1201862, “PubChem BioAssay data set” (2004)
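Step 1: Grow cells in 96-well plates. Step 2: Expose to compound for 48 hours at 5 concentrations. Step 3: Interpolate endpoints linearly; if unreached, use highest concentration. GI50: concentration for 50% inhibition of growth.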 The source made the active and inactive calls. Cut-off read from the data, not from the text of the source: active = GI50 up to about 1.1 µM and inactive = higher.

Tests used:
Assay in all cases: NCI tumour cell line growth inhibition, 48 h
OVCAR-4 = tested on: OVCAR-4
ACHN = tested on: ACHN
COLO 205 = tested on: COLO 205
UACC-62 = tested on: UACC-62
SNB-19 = tested on: SNB-19
U-251 = tested on: U-251
SNB-75 = tested on: SNB-75
SK-OV-3 = tested on: SK-OV-3
Malme-3M = tested on: Malme-3M
MDA-MB-435 = tested on: MDA-MB-435
HCT-15 = tested on: HCT-15
UO-31 = tested on: UO-31
SF-539 = tested on: SF-539
IGROV-1 = tested on: IGROV-1
RXF 393 = tested on: RXF 393
NCI-H226 = tested on: NCI-H226
SK-MEL-28 = tested on: SK-MEL-28
PC-3 = tested on: PC-3
786-0 = tested on: 786-0
SK-MEL-5 = tested on: SK-MEL-5

Structure (SMILES) | GI50 (OVCAR-4) | GI50 (ACHN) | GI50 (COLO 205) | GI50 (UACC-62) | GI50 (SNB-19) | GI50 (U-251) | GI50 (SNB-75) | GI50 (SK-OV-3) | GI50 (Malme-3M) | GI50 (MDA-MB-435) | GI50 (HCT-15) | GI50 (UO-31) | GI50 (SF-539) | GI50 (IGROV-1) | GI50 (RXF 393) | GI50 (NCI-H226) | GI50 (SK-MEL-28) | GI50 (PC-3) | GI50 (786-0) | GI50 (SK-MEL-5)
Cc1ccc(/C=C2\CN(C)CC3C2=NC(=S)NC3c2ccc(C)cc2)cc1 (stereo not given) | 26.9 µM (inactive) | > 100 µM (inactive) | 22.7 µM (inactive) | > 100 µM (inactive) | > 61.9 µM (inactive) | 20.5 µM (inactive) | 60.8 µM (inactive) | > 100 µM (inactive) | 92.7 µM (inactive) | 16.7 µM (inactive) | 36 µM | 43.2 µM (inactive) | > 100 µM (inactive) | 13.7 µM (inactive) | 30.3 µM (inactive) | > 100 µM (inactive) | > 100 µM (inactive) | 11 µM (inactive) | 86.3 µM (inactive) | 38.5 µM (inactive)
CC1CN1C(=O)NCCCCCCNC(=O)N1CC1C (stereo not given) | > 100 µM (inactive) | 9.53 µM (inactive) | > 100 µM (inactive) | 31.8 µM (inactive) | > 86.7 µM (inactive) | 65.3 µM (inactive) | 62.7 µM (inactive) | 66.5 µM (inactive) | > 100 µM (inactive) | > 100 µM (inactive) | > 100 µM | 79.4 µM (inactive) | 35 µM (inactive) | > 100 µM (inactive) | > 100 µM (inactive) | > 75.7 µM (inactive) | > 100 µM (inactive) | > 100 µM (inactive) | 51.6 µM (inactive) | > 100 µM (inactive)
OCCNCNc1nc(NCNCCO)nc(N(CNCCO)CNCCO)n1 | 25.9 µM (inactive) | 27 µM (inactive) | 15.7 µM (inactive) | 18.8 µM (inactive) | 17.1 µM (inactive) | 21.1 µM (inactive) | 24.7 µM (inactive) | > 43.7 µM (inactive) | 18.5 µM (inactive) | 18.2 µM (inactive) | 25.2 µM | 33.2 µM (inactive) | 19.6 µM (inactive) | 22.6 µM (inactive) | 15 µM (inactive) | 22.6 µM (inactive) | 24.4 µM (inactive) | 22.3 µM (inactive) | 17.7 µM (inactive) | 15.1 µM (inactive)
